Laboratory results taken from patent US12584098B2, “In-vitro model of the human gut microbiome and uses thereof in the analysis of the impact of xenobiotics” (EUROPEAN MOLECULAR BIOLOGY LABORATORY, priority 2018, dated 2026).
Like-named read-outs stand apart in the source and are kept apart here.

Legend:
[1] = cited from earlier work
25 gut bacterial strains [2] = test: Bacteria-drug interaction screen: drug depletion from supernatant (UV-UPLC); details: 50 μM drug, 48 h anaerobic growth
Protocol: (§1) All liquid chromatography methods are run on a Waters Acquity UPLC H-Class instrument with a PDA detector and a quaternary solvent system. All established methods are 5 minutes long, have a flow rate of 0.5 ml/min and run on a CSH C18 column (Waters, Part number 186005297) in reverse mode. The column is heated to 40° C. and samples are kept at 6° C. All methods use 50% acetonitrile (Biosolve, ULC grade) for washing buffer, and 50% methanol (Biosolve, ULC grade) for purging buffer. As organic mobile phase acetonitrile was used. The assay was optimized using only two buffers besides water as hydrophilic mobile phase: 5 mM formic acid (Biosolve, ULC grade) of pH 3.2 and 5 mM ammonium formate (Ammonium hydroxide, ACS grade, Sigma) with pH adjusted to 8.3 using the formic acid buffer.
For all drugs, a fixed concentration of 50 µM was used, which in most cases approximates the concentration of one pill (0.02-3 mmol) diluted in the volume of the gut (approx. 2.5 L). One bacteria-free control per plate and drug, but triplicates for each bacteria-drug interaction was screened. […] Growth was monitored with measurements of the optical density at 578 nm using an Eon Microplate Spectrophotometer (BIOTEK) approximately every 2 h for the first 10 h, then approximately every 6 h. […]

25 gut bacterial strains [3] = test: Growth effect (OD578) in the bacteria-drug interaction screen; type: cell-based, human gut bacteria; details: 50 μM drug, 25 strains
Protocol: (§2) For all drugs, a fixed concentration of 50 µM was used, which in most cases approximates the concentration of one pill (0.02-3 mmol) diluted in the volume of the gut (approx. 2.5 L). One bacteria-free control per plate and drug, but triplicates for each bacteria-drug interaction was screened. The screen was carried out under anaerobic conditions in 96-well plates (NUNCLON Delta Surface 163320, NUNC) with 150 μl GMM as the growth medium sealed with a Breathe-Easy® sealing membrane (Z380059, SIGMA-ALDRICH). Plates containing 100 μl of the medium and 75 μM of the drug were prepared beforehand, stored at −20° C. and used as needed. Frozen plates were introduced into the anaerobic chamber the evening before inoculation. Wells were inoculated with 50 μl of a second passage culture with an end OD578 of 0.01. Growth was monitored with measurements of the optical density at 578 nm using an Eon Microplate Spectrophotometer (BIOTEK) approximately every 2 h for the first 10 h, then approximately every 6 h. After 48 h, plates were removed from the anaerobic chamber and the bacteria spinned down (4000 rpm, 10 min). […] All liquid handling outside of anaerobic chamber was done using a liquid handling robot (FXp, BIOMEK). […] The bacteria-drug interaction screen was conducted with two biological replicates.

gut bacterial strains = test: Testing for anticommensal activity at higher concentrations (validation of side effect-based predictions); type: cell-based
Protocol: Compounds of interest were purchased from independent sources and if possible, dissolved at 5 mM concentration in mGAM. Lower concentrations were used when solubility limit was reached. Solutions were sterile filtered, and three 4-fold serial dilutions were arranged in 96 well plates, aiming at covering a broad range of drug concentrations. Inoculation and growth curve acquisition was performed as described for the MIC determination experiments.

[4] = test system: gut bacterial strains (hits of the interaction screen); test: Depletion-mode assay: supernatant vs total extraction; details: 50 μM drug, 48 h, GMM
Protocol: If the drug is only depleted in the supernatant, the drug is likely a bioaccumulated, whereas if the drug is also depleted in the extraction of the total fraction a biodegradation is likely.
as §1
Bacteria from second passage culture are inoculated with an OD578 of 0.01 in 1 mL GMM containing 50 μM drug of interest in 2 mL eppendorf tubes and incubated for 48 h while shaking. After finishing growth, the cultures were removed from the anaerobic chamber. […]

C. saccharolyticum = details: 50 μM drug
Protocol: as §2

E. coli IAI1 = details: 50 μM drug
Protocol: as §2

In the case of `CC[C@@H]([C@H](C)O)n1ncn(-c2ccc(N3CCN(c4ccc(OC[C@@H]5CO[C@@](Cn6cncn6)(c6ccc(F)cc6F)C5)cc4)CC3)cc2)c1=O` [posaconazole], the “maximum concentration in the duodenum” value ([1]; 40 mg (57 μmol) delivered to the stomach in acidic solution) is given as 26.3 ± 10.3 µM and the “maximum concentration in the duodenum” value ([1]; 40 mg (57 μmol) delivered to the stomach in neutral solution) is given as 13.6 ± 5.8 µM.
With `C[C@H](Cn1cnc2c(N)ncnc21)OCP(=O)(O)O` [tenofovir] the “depletion of drug from the medium by bacterial strains (in words)” value (25 gut bacterial strains [2]) was “neither being depleted” and the “effect on bacterial growth in the screen” value (25 gut bacterial strains [3]) was “nor affecting bacterial growth”.
With `CN(C)C(=N)N=C(N)N` [Metformin] the “anticommensal activity at concentrations higher than the 20 μM of the screen” value (gut bacterial strains) was “verified”.
In the case of `CC(C)(O)c1ccccc1CC[C@@H](SCC1(CC(=O)O)CC1)c1cccc(/C=C/c2ccc3ccc(Cl)cc3n2)c1` [montelukast], the “predominant mode of depletion” value [4] is reported as “bioaccumulation” and the “depletion mode: bioaccumulation or biodegradation (in words)” value ([4]; supernatant vs total extraction) is reported as “bioaccumulated and then partially degraded by several bacterial strains”.
In the case of `O=C1[C@H](CC[C@H](O)c2ccc(F)cc2)[C@@H](c2ccc(O)cc2)N1c1ccc(F)cc1` [ezetimibe], the “depletion of drug from the medium by bacterial strains (in words)” value (25 gut bacterial strains [2]) is reported as “interacting only with a few bacterial strains”.
In the case of `CNCC[C@H](Oc1cccc2ccccc12)c1cccs1` [duloxetine], the “effect on growth of C. saccharolyticum” value (C. saccharolyticum) is reported as “inhibiting growth” and the “effect on growth of E. coli IAI1” value (E. coli IAI1) is reported as “inhibiting growth”.
